Earlier results, collected in patent US4820521A, “Sustained absorption pharmaceutical composition” (priority 1983, dated 1989).

How the values were obtained:
[1] = tested on: involuntary muscle; conditions: versus theobromine and caffeine
[2] = versus caffeine
[3] = human, in vivo

## Cn1c(=O)c2[nH]cnc2n(C)c1=O [Theophylline, 1,3-dimethylxanthine]
[1]
  relaxant of involuntary muscle (in words): more powerful relaxant of involuntary muscle than either theobromine or caffeine
[2]
  diuretic action (in words): stronger than that of caffeine is of short duration
In vivo
  minimum effective plasma concentration: about 5 mcg/ml
plasma
  average therapeutic concentration: about 10 mcg/ml
  therapeutic range of concentration: 10 to 20 µg/mL
Plasma levels above 20 mcg/ml
  toxicity of levels above 20 mcg/ml: toxic
Plasma levels below 10 mcg/ml
  effect of levels below 10 mcg/ml: ineffective
[3]
  apparent biological half-life: 4-9 hours
